Source: patent publication US11332477B2, “Nitrogen containing heterocycle substituted benzoxazine oxazolidinone compound and preparation method and use thereof” (INSTITUTE OF MATERIA MEDICA, CHINESE ACADEMY OF MEDICAL …, priority 2017, dated 2022)
Values after ≈ are worked out from the molar mass of the structure shown.

Assays:
[1] = tested on: clinically isolated 12525 strains (rifampicin- and isoniazid-resistant strains); test: microbe, parasite or virus in culture; format: cell-based; conditions: Mycobacterium tuberculosis, read-out: MIC 12525
[2] = tested on: Linezolid-resistant strain; test: microbe, parasite or virus in culture; format: cell-based; conditions: Mycobacterium tuberculosis, read-out: MIC Linezolid-resistant strain

With `CC(=O)NC[C@@H]1OC(=O)N2c3ccc(N4CCOCC4)cc3OC[C@@H]12` [Compound VII, reference compound] the MIC [1] was 0.119 µg/mL (≈ 0.343 µM) and the MIC [2] was 21.6 µg/mL (≈ 62.2 µM).

`NNC(=O)c1ccncc1` [isoniazid] was tested, and the MIC [1] was > 40 µg/mL and the MIC [2] was 0.032 µg/mL (≈ 0.233 µM).

`CC(=O)NC[C@H]1OC(=O)N2c3cc(F)c(N4CCSCC4)cc3OC[C@H]12` [Compound 28, N-(((3R,3aR)-8-Fluoro-1-oxo-7-thiomorpholino-3a,4-dihydro-1H,3H-benzo[b]oxazolo[3,4-d][1,4]oxazin-3-yl)methyl)acetamide] showed an MIC [1] of 0.047 µg/mL (≈ 0.123 µM) and an MIC [2] of 3.02 µg/mL (≈ 7.91 µM).

For `CO[C@H]1/C=C/O[C@@]2(C)Oc3c(C)c(O)c4c(O)c(c(/C=N/N5CCN(C)CC5)c(O)c4c3C2=O)NC(=O)/C(C)=C\C=C\[C@H](C)[C@H](O)[C@@H](C)[C@@H](O)[C@@H](C)[C@H](OC(C)=O)[C@@H]1C` [rifampicin], the MIC [1] was 22.4 µg/mL (≈ 27.2 µM) and the MIC [2] was 0.073 µg/mL (≈ 0.0887 µM).

Molecule `CC(=O)NC[C@H]1CN(c2ccc(N3CCOCC3)c(F)c2)C(=O)O1` [Linezolid, reference compound] has an MIC [1] of 0.138 µg/mL (≈ 0.409 µM) and an MIC [2] of 4 µg/mL (≈ 11.9 µM).

In the case of `CC(=O)NC[C@@H]1OC(=O)N2c3cc(F)c(N4CCSCC4)cc3OC[C@@H]12` [Compound 4, N-(((3S,3aS)-8-Fluoro-1-oxo-7-thiomorpholino-3a,4-dihydro-1H,3H-benzo[b]oxazolo[3,4-d][1,4]oxazin-3-yl)methyl)acetamide], the MIC [1] is reported as < 0.016 µg/mL and the MIC [2] is reported as 0.246 µg/mL (≈ 0.645 µM).

Molecule `CC(=O)NC[C@@H]1OC(=O)N2c3cc(F)c(N4CC[S+]([O-])CC4)cc3OC[C@@H]12` [Compound 23, N-(((3S,3aS)-8-Fluoro-1-oxo-7-(1-oxidothiomorpholino)-3a,4-dihydro-1H,3H-benzo[b]oxazolo[3,4-d][1,4]oxazin-3-yl)methyl)acetamide] has an MIC [1] of 0.053 µg/mL (≈ 0.133 µM).
